From patent US10869846B2, “N-acetylcysteine amide (NAC amide) in the treatment of diseases and conditions associated with oxidative stress” (SENTIENT LIFESCIENCES, INC., priority 2005, dated 2020)
Values joined by “and” are separate entries in the source; they are usually repeats but may differ in a detail not shown here. Equal values may be shown once. Marks after values point to notes of the source that are not given here.

How the values were obtained:
Type in all cases: in vivo, rat
[1] = tested on: Sprague Dawley rats; experiment: Catalase activities in tissues after 6Gy total-body x-ray radiation; settings: KIDNEY, 500 mg/kg orally; for Catalase level: individual animals; for Catalase Mean: n = 3
[2] = tested on: Sprague Dawley rats; experiment: MDA levels in tissues after 6Gy total-body x-ray radiation; settings: for MDA level / MDA Mean: 6Gy total-body x-ray, 500 mg/kg orally; for MDA level: individual animals; for MDA Mean: n = 3; for lung MDA levels: treatment concurrent with irradiation, versus irradiation alone
Experimental: (§1) Animal studies: The irradiation of rats was performed at the Radiation Oncology Department of the Phelps County Regional Medical Center in Rolla, Mo., using a 16 MeV beam generated by a Varian linear accelerator, model Clinac 1800, and in accordance with the standards of humane laboratory animal protocols. A 20×20 or 25×25 cm field was used and output factors were checked once a week. Twelve animals were divided into 4 groups each containing 3 animals (Control, XRT, NAC amide+XRT and NAC+XRT). The radiation (XRT) control received whole body irradiation by 6 Gy of 16 MeV electrons. The NAC amide+XRT group received 500 mg/kg/day NAC amide immediately before irradiation and for three days after until sacrifice. The rats were anesthetized and heparinized blood was collected via cardiopuncture. Following sacrifice, liver, lung, brain and spleen were removed and stored at −70° C. until homogenization.
(§2) All experiments were performed using adult Albino SASCO Sprague Dawley female rats weighing about 250 g, which were purchased from Charles River Laboratories Inc. (Portage, Mich.). Twelve rats were shipped in paper crates (4 in each crate). Rats were delivered with a certificate including serological, bacteriological, pathological parasitological information. They were divided into 4 cages (3 rats in each cage) and kept in a temperature controlled (20° C.) room equipped to maintain a 12 h light-dark cycle. Standard rat chow (Purina rat chow) and tap water were supplied in individual glass bottle and given ad libitum. Water was changed daily. Weights of the animal were taken before giving the NAC amide treatment solution and amount of food eaten and water consumed was not measured because NAC amide was given orally but not in the drinking water or food.
(§3) NAC amide was provided by Novetide Ltd (Haifa Bay, Israel) including certificate of analysis and MSDS (lot #40233-64). NAC amide feeding solution was prepared freshly each day right before the administration by weighing 1.25 g NAC amide solid sample (Type HR-120 electronic balance, A&D Company limited, Japan. S/N: 12202464) and adding into 10 ml PBS solution and put on ice. One ml of this solution was administrated (gavaged) per rat orally by using animal feeding biomedical needles and 3 ml BD Luer-Lok Tip syringes. Rats received one-dose total-body 6 Gy/16 MeV x-ray radiation and 3 rats in each group were held in a covered bucket and received radiation at the same time. Each day at the same time, 500 mg/Kg body weight of NAC amide was administrated to the animals.
For MDA levels, 350 μL tissue homogenate was used to react with 100 μL of 500 ppm BHT solution and 550 μL solution of 10% TCA solution, therefore, the total volume here was 1000 μL. After boiling the whole solution, 500 μL was taken out and react with 500 μL TBA and the total volume here was 1000 μL also.
(§4) Glutathione (GSH) and Glutathione Disulfide (GSSG) Determination: Cells or tissue samples were homogenized on ice and derivatized with N-(1-pyrenyl)-maleimide (NPM). The derivatized samples were injected onto a 3 μm C18 column (Column Engineering) in a reverse phase HPLC system with a mobile phase of 35% water, 65% acetonitrile containing 1 mL/L of acetic acid and o-phosphoric acid (R. Winters, et al., Anal. Biochem., 227:14-21 (1995) and H. H. Draper et al., Free Rad. Biol. Med., 15:353-363 (1993)). Malondialdehyde (MDA) determinations were made as described in J. Gutteridge, Anal. Biochem., 69: 518-526 (1975).

[3] = tested on: Sprague Dawley rats; experiment: Catalase activities in tissues after 6Gy total-body x-ray radiation; settings: 500 mg/kg orally; for Catalase level: individual animals; for Catalase Mean: n = 3
Experimental: as §1, §2, §3
In assay solution, k(enzyme activity)= 1/60*ln(A0/A60)*(Total Volume of reaction/volume of sample) A0—Absorbance at 0 second A60—Absorbance at 60 second In sample, K(specific activity)=k/protein concentration.
Enzyme Activity Assays: Catalase (CAT) activity was determined spectrophotometrically and was expressed in kunits/mg protein and kunits/10^6 cells as described by M. Bradford, Anal. Biochem., 72:248-256 (1976).

[4] = tested on: Sprague Dawley rats; experiment: GSH and CYS levels in tissues after 6Gy total-body x-ray radiation; settings: for CYS level / GSH level / CYS Mean / GSH Mean: 6Gy total-body x-ray, 500 mg/kg orally; for CYS level / GSH level: individual animals; for CYS Mean / GSH Mean: n = 3
Experimental: as §1, §2, §3
For GSH and CYS levels, 250 μL tissue homogenate was used to react with 750 μL NPM solution, therefore, the total volume was 1000 μL.
Oxidative Stress Parameters in Animals: After the blood samples were drawn, the animals were perfused by a cold antioxidant buffer first and then liver, brain and kidney samples were collected aseptically, rinsed in ice-cold saline and placed in petri dishes maintained on ice. The tissue samples kept at −70° C. for the GSH, GSSG, and MDA determinations were made.
as §4

[5] = BRAIN, listed as AD4, 500 mg/kg
[6] = KIDNEY, listed as AD4, 500 mg/kg
[7] = LIVER, listed as AD4, 500 mg/kg
[8] = PLASMA, listed as AD4, 500 mg/kg

## N-acetylcysteine amide [NAC amide]
[1]; listed as AD4, 500 mg/kg
  Catalase level: 3.89 mU/mg and 3.46 mU/mg and 4.56 mU/mg
[1]
  Catalase Mean: 3.97** mU/mg
[2]; [5]
  MDA level: 5.79 nmol/100 mg and 5.53 nmol/100 mg and 5.13 nmol/100 mg
[2]; BRAIN
  MDA Mean: 5.48 nmol/100 mg
[2]; [6]
  MDA level: 1.96 nmol/100 mg and 1.45 nmol/100 mg
[2]; KIDNEY, listed as AL4, 500 mg/kg
  MDA level: 1.5 nmol/100 mg
[2]; KIDNEY
  MDA Mean: 1.64** nmol/100 mg
[2]; [7]
  MDA level: 4.14 nmol/100 mg and 4.65 nmol/100 mg and 4.36 nmol/100 mg
[2]; LIVER
  MDA Mean: 4.38** nmol/100 mg
[2]; LUNG, listed as AD4, 500 mg/kg
  MDA level: 1.72 nmol/100 mg and 1.58 nmol/100 mg and 1.28 nmol/100 mg
[2]; LUNG
  MDA Mean: 1.53** nmol/100 mg
[2]
  lung MDA levels: significantly lowered
[3]; [7]
  Catalase level: 69.63 mU/mg and 57.88 mU/mg and 50.33 mU/mg
[3]; LIVER
  Catalase Mean: 59.28** mU/mg
[3]; LUNG, listed as AD4, 500 mg/kg
  Catalase level: 1.02 mU/mg and 0.53 mU/mg
[3]; LUNG, listed as ND4, 500 mg/kg
  Catalase level: 0.50 mU/mg
[3]; LUNG
  Catalase Mean: 0.68** mU/mg
[4]; [5]
  CYS level: 4.47 nmol/mg and 4.32 nmol/mg and 4.26 nmol/mg
  GSH level: 7.93 nmol/mg and 7.84 nmol/mg and 6.98 nmol/mg
[4]; BRAIN
  CYS Mean: 4.4 nmol/mg
  GSH Mean: 7.6** nmol/mg
[4]; [6]
  CYS level: 16.91 nmol/mg and 11.09 nmol/mg and 10.81 nmol/mg
  GSH level: 4.39 nmol/mg and 6.22 nmol/mg and 5.02 nmol/mg
[4]; KIDNEY
  CYS Mean: 12.9** nmol/mg
  GSH Mean: 5.2 nmol/mg
[4]; [7]
  CYS level: 1.51 nmol/mg and 1.53 nmol/mg (2×)
  GSH level: 17.45 nmol/mg and 16.73 nmol/mg and 17.50 nmol/mg
[4]; LIVER
  CYS Mean: 1.5 nmol/mg
  GSH Mean: 17.2** nmol/mg
[4]; LUNG, listed as AD4, 500 mg/kg
  CYS level: 1.43 nmol/mg and 1.61 nmol/mg and 0.91 nmol/mg
  GSH level: 5.12 nmol/mg and 5.27 nmol/mg and 6.28 nmol/mg
[4]; LUNG
  CYS Mean: 1.3 nmol/mg
  GSH Mean: 5.6 nmol/mg
[4]; [8]
  CYS level: 16.00 nmol/mg and 15.45 nmol/mg and 15.40 nmol/mg
  GSH level: 7.10 nmol/mg and 7.44 nmol/mg and 7.94 nmol/mg
[4]; PLASMA
  CYS Mean: 15.6** nmol/mg
  GSH Mean: 7.6** nmol/mg
[4]; after radiation exposure
  thiol levels in plasma and liver: significantly increases

## CC(=O)N[C@@H](CS)C(=O)O [NAC, N-acetylcysteine]
[1]; 500 mg/kg
  Catalase level: 5.85 mU/mg and 3.02 mU/mg and 4.36 mU/mg
[1]
  Catalase Mean: 4.41 mU/mg
[2]; BRAIN, 500 mg/kg
  MDA level: 6.42 nmol/100 mg and 6.69 nmol/100 mg and 5.33 nmol/100 mg
[2]; BRAIN
  MDA Mean: 6.15 nmol/100 mg
[2]; KIDNEY, 500 mg/kg
  MDA level: 1.76 nmol/100 mg and 1.78 nmol/100 mg and 1.41 nmol/100 mg
[2]; KIDNEY
  MDA Mean: 1.65** nmol/100 mg
[2]; LIVER, 500 mg/kg
  MDA level: 5.1 nmol/100 mg (2×) and 5.02 nmol/100 mg
[2]; LIVER
  MDA Mean: 5.07**/*** nmol/100 mg
[2]; LUNG, 500 mg/kg
  MDA level: 2.58 nmol/100 mg and 2.34 nmol/100 mg and 2.63 nmol/100 mg
[2]; LUNG
  MDA Mean: 2.52** nmol/100 mg
[2]
  lung MDA levels: did not change the MDA levels significantly
[3]; LIVER, 500 mg/kg
  Catalase level: 75.22 mU/mg and 69.09 mU/mg and 69.00 mU/mg
[3]; LIVER
  Catalase Mean: 71.11*** mU/mg
[3]; LUNG, 500 mg/kg
  Catalase level: 2.12 mU/mg and 0.79 mU/mg and 0.48 mU/mg
[3]; LUNG
  Catalase Mean: 1.13 mU/mg
[4]; BRAIN, 500 mg/kg
  CYS level: 4.16 nmol/mg and 3.76 nmol/mg and 4.47 nmol/mg
  GSH level: 7.32 nmol/mg and 6.74 nmol/mg and 7.15 nmol/mg
[4]; BRAIN
  CYS Mean: 4.1 nmol/mg
  GSH Mean: 7.0 nmol/mg
[4]; KIDNEY, 500 mg/kg
  CYS level: 12.23 nmol/mg and 12.16 nmol/mg and 11.03 nmol/mg
  GSH level: 5.95 nmol/mg and 6.44 nmol/mg and 6.33 nmol/mg
[4]; KIDNEY
  CYS Mean: 11.8** nmol/mg
  GSH Mean: 6.2** nmol/mg
[4]; LIVER, 500 mg/kg
  CYS level: 1.25 nmol/mg and 1.61 nmol/mg and 1.51 nmol/mg
  GSH level: 15.23 nmol/mg and 16.80 nmol/mg and 16.93 nmol/mg
[4]; LIVER
  CYS Mean: 1.5 nmol/mg
  GSH Mean: 16.3 nmol/mg
[4]; LUNG, 500 mg/kg
  CYS level: 1.16 nmol/mg and 2.64 nmol/mg and 2.43 nmol/mg
  GSH level: 5.19 nmol/mg and 7.24 nmol/mg and 4.95 nmol/mg
[4]; LUNG
  CYS Mean: 1.9 nmol/mg
  GSH Mean: 5.8 nmol/mg
[4]; PLASMA, 500 mg/kg
  CYS level: 14.64 nmol/mg and 13.75 nmol/mg and 14.36 nmol/mg
  GSH level: 7.08 nmol/mg and 6.18 nmol/mg and 6.27 nmol/mg
[4]; PLASMA
  CYS Mean: 14.2*** nmol/mg
  GSH Mean: 6.5**/*** nmol/mg
[4]; after radiation exposure
  GSH levels in tissues: does not increase
